{"source": "patent US20040055024A1", "about": "“Conditional mutants of influenza virus M2 protein” (Medical Research Council, priority 1998, published 2004)", "key": {"[1]": {"tested_on": "thymic rudiments", "assay": "Foetal thymic organ culture of transgenic embryos in the presence of rimantadine", "assay_type": "cell-based, mouse", "details": "thymic lobes of 15 day embryos, 7 to 10 days culture with rimantadine, FACS", "description": "Opin. Immunol. 6:293-297.\nEmbryo sacs are removed from 15-day pregnant mice and the embryos released by cutting the umbilical cord. The embryos are stored on ice; non-embryo tissue is discarded. Any abnormal embryos, or asynchronous embryos as judged by size, are also discarded at this stage.\nFoetal thymic lobes are dissected from the embryo and cultured on Costar filters (Coming) on RPMI medium. The filters are transferred to a new well of medium every day during the experiment.\nAt between 7 and 10 days, the thymic lobes are harvested, transferred to an eppendorf tube containing 200 μl medium, and the cells separated by teasing out mechanically. The cells are then analysed by FACS as described above.\nIn a second series of experiments, the thymic rudiments are cultured in the presence of rimantadine, and the cells analysed by FACS as described above."}, "[2]": {"tested_on": "T-lymphocyte development (thymus, spleen)", "details": "mouse, in vivo"}, "[3]": {"tested_on": "murine MEL cells", "assay_type": "cell-based, mouse"}}}
{"smiles": "CC(N)C12CC3CC(CC(C3)C1)C2", "note": "(stereo not shown) [Rimantadine]", "values": [{"measurement": "rescue of T-cell production", "setting": "[1]", "value": "able to rescue T-cell production in the thymic rudiments"}, {"measurement": "rescue of the lack of T-cells by administration of rimantadine", "setting": "[2]", "value": "not rescuable"}, {"measurement": "cell kinetics after induction", "setting": "[3]", "value": "preceded by two cell doublings before terminal differentiation and growth arrest"}, {"measurement": "cloning of M2(H37A) mutant in MEL cells", "setting": "[3]", "value": "the mutant can be cloned"}]}
